Results from PubChem BioAssay (NCI).
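Where inhibition never reached the appropriate level, the endpoint shown equals the highest concentration tested. Otherwise, values were interpolated linearly from a five-concentration, 48-hour dose response in 96-well plates. GI50 marks 50% less growth. TGI marks complete inhibition of growth.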

Assays:
Experiment in all cases: inhibition of tumour cell growth, NCI panel, 48 h
[1] = test system: COLO 205 colon
[2] = test system: HCC-2998 colon
[3] = test system: HT29 colon
[4] = test system: K-562 leukemia
[5] = test system: MOLT-4 leukemia
[6] = test system: NCI/ADR-RES ovarian
[7] = test system: SK-MEL-28 melanoma
[8] = test system: U251 CNS
[9] = test system: UACC-257 melanoma
[10] = test system: UACC-62 melanoma

SMILES	TGI [1]	TGI [2]	TGI [3]	TGI [4]	TGI [5]	TGI [6]	TGI [7]	TGI [8]	TGI [9]	TGI [10]	GI50 [1]	GI50 [2]	GI50 [3]	GI50 [4]	GI50 [5]	GI50 [6]	GI50 [7]	GI50 [8]	GI50 [9]	GI50 [10]
COC(=O)[C@]1(c2ccc(N(C)C)cc2OC)C[C@@H]2CCCN(CCc3c1[nH]c1ccccc31)C2	27.3 µM	29.8 µM	32.8 µM	37.7 µM	> 91.4 µM	35.8 µM	35.1 µM	36 µM	39.6 µM	32.4 µM										
CCCOP(=O)(OCCC)OC(C(F)(F)F)C(F)(F)F		> 100 µM	> 100 µM	> 100 µM	> 100 µM		> 100 µM	> 100 µM	> 100 µM	> 100 µM										
COC(=O)CNC(=O)CCC(C)[C@H]1CCC2C3C(C[C@H](OC(C)=O)[C@@]21C)[C@@]1(C)CCC2(C[C@H]1C[C@H]3OC(C)=O)OOC1(CC[C@]3(C)C4C[C@H](OC(C)=O)[C@@]5(C)C(CC[C@@H]5C(C)CCC(=O)NCC(=O)OC)C4[C@H](OC(C)=O)C[C@@H]3C1)OO2 (some centres undefined)		1.86 µM	2.37 µM	4.63 µM		> 50 µM	9.52 µM	14 µM	2.74 µM											
COc1cc2cc(C(=O)N3CC(CCl)c4ccc(N(C)C)cc43)[nH]c2c(OC)c1OC (centres undefined)	0.213 µM	0.106 µM		> 100 µM	0.443 µM	0.272 µM	0.121 µM	4.05 µM		0.524 µM										
CN1Cc2cc(O)c(O)cc2C(O)C1 (centres undefined)	> 100 µM	> 100 µM	> 100 µM	> 100 µM	> 100 µM	> 100 µM	> 100 µM	> 100 µM	> 100 µM	> 100 µM										
CCOc1ccc(C(C)c2cc3c(cc2OC)OCO3)cc1 (centres undefined)		12.1 µM	12.4 µM		15 µM			> 100 µM	52.8 µM	> 100 µM										
CC(C)C(=O)/C=C/S/C=C/C(=O)C(C)C	8.16 µM		> 100 µM			9.63 µM	21.1 µM	70.6 µM	6.5 µM	27.9 µM										
CC(C(=O)c1ccncc1)c1ccccn1 (centres undefined)	> 100 µM	> 100 µM	> 100 µM	> 100 µM		> 100 µM	> 100 µM	> 100 µM	> 100 µM	> 100 µM										
S=c1nc(N/N=C/c2cccs2)c2cn[nH]c2[nH]1	> 100 µM	27.8 µM	> 100 µM	> 100 µM	66 µM	81.7 µM	> 100 µM	77.6 µM	> 100 µM	> 100 µM										
O=P(Nc1ccccc1)(Oc1ccccc1)N(CCCl)CCCl (centres undefined)	> 100 µM	> 100 µM	> 100 µM	> 100 µM	> 100 µM		> 100 µM	> 100 µM	> 100 µM	> 100 µM										
Cc1ccc(N=Nc2c(O)ccc3cc(S(=O)(=O)O)ccc23)cc1	> 100 µM	> 100 µM	> 100 µM	> 100 µM	> 100 µM	> 100 µM	> 100 µM	> 100 µM	> 100 µM	> 100 µM										
Cc1cc(OCCOCCC(F)(F)P(=O)(O)O)ccc1CCc1cnc2c(N)nc3cc(CCC(=O)O)ccc3c2c1	> 100 µM	> 100 µM	> 100 µM	> 100 µM	> 100 µM	> 100 µM	> 100 µM	> 100 µM	> 100 µM	> 100 µM	> 100 µM	> 100 µM	> 100 µM	> 100 µM	> 100 µM	> 100 µM	> 100 µM	> 100 µM	> 100 µM	> 100 µM
CCCCCCCCCCCCCC[n+]1ccc(C(N)=O)cc1	2.69 µM		4.13 µM	> 100 µM	> 100 µM	50.2 µM	7.49 µM	1.87 µM	6.08 µM	4.65 µM	1.27 µM		1.11 µM	2.31 µM	2.54 µM	19 µM	2.83 µM	0.538 µM	2.24 µM	1.9 µM
COc1cc2c(cc1Oc1c(Oc3c(O)c(OC)cc4c3C(CC(C)C)N(C)CC4)c(OC)cc3c1C(CC(C)C)N(C)CC3)C(CC(C)C)N(C)CC2 (centres undefined)	0.837 µM	5.17 µM	5.61 µM	5.65 µM	4.05 µM	14.1 µM	13.6 µM	6.22 µM	11.5 µM	4.02 µM										
C=CC(C)C1(CCCOCc2ccccc2)C(=S)N2CCC3(CC24CCCC14)OCCO3 (centres undefined)	> 100 µM	> 100 µM	> 100 µM	> 100 µM	> 100 µM		> 100 µM	> 100 µM	> 100 µM	> 100 µM										
CNC(=O)SCC(NC(=O)CCC(N)C(=O)O)C(=O)NCC(=O)O (centres undefined)	> 100 µM	> 100 µM	> 100 µM	> 100 µM	> 100 µM	> 100 µM	> 100 µM	> 100 µM	> 100 µM	> 100 µM										
O=C(O)/C(=C\c1ccc(O)cc1)c1cccc2ccccc12		> 100 µM	> 100 µM	> 100 µM	> 100 µM	> 100 µM	> 100 µM	> 100 µM	> 100 µM	> 100 µM										
COC1=CC(=O)C=C(OC)C1=O	40.3 µM	56.2 µM	65.3 µM	18 µM	3.59 µM	10.1 µM	46.5 µM	64.5 µM	34.4 µM	11.6 µM										
COC1=C(C)C(=O)C2=C(C1=O)C1C3CC4=C(C(=O)C(OC)=C(C)C4=O)C(CNC(=O)C(C)O)N3C(C#N)C(C2)N1C (centres undefined)	< 0.01 µM	< 0.0272 µM	< 0.01 µM	1.48 µM	< 0.215 µM	8.72 µM	< 0.0217 µM		0.0102 µM	< 0.01 µM										
